Test results as given in US10857121B2, “Use of malononitrile compounds for protecting animals from parasites” (MERIAL INC., priority 2014, dated 2020).

Experiments:
Haematobia irritans [1] = test: In vivo efficacy against Haematobia irritans in cattle, topical pour-on; conditions: for % Efficacy vs. Haematobia irritans at 5 h: 5 h after infestation, Day 13
Haematobia irritans [2] = test: as above; conditions: for % Efficacy vs. Haematobia irritans at 5 h: 5 h after infestation; for % Efficacy vs. Haematobia irritans at 24 h: 24 h after infestation
Description: A representative compound of the invention (II-35) was evaluated for efficacy against 20 Haematobia irritans in cattle when applied topically. Four treatment groups and one untreated control group containing four animals each were formed. Treatment Group 1 was an untreated control and Treatment Group 5 was a positive control group treated with a pour-on product containing 5% (w/v) cypermethrin (Cypermil Pour-on). The animals in Treatment Groups 2, 3 and 4 were treated with a pour-on composition containing compound (II-35) to deliver doses of 20 mg/kg, 10 mg/kg and 5 mg/kg body weight, respectively. The pour-on formulations comprised a mixture of 20% (w/v), 10% (w/v) and 5% (w/v) of the active dissolved in a carrier comprising 50% (v/v)N-methylpyrrolidone, 5% (v/v) dimethyl isosorbide and qs with Miglyol® 840. All animals were infested with approximately 200 Haematobia irritans flies on Days 1, 7, 14 and 21. As the source of flies was natural and the amount of flies decreased, the infestations On Days 28 and 35 animals were with approximately 100 horn flies due to a lack of flies. Additionally, Treatment Groups 3 and 5 were not infested on Day 35, due to the lack of flies. The flies were counted and recorded five hours following infestation and on the following day (at 24 h). The counts done on Day 2 were at 48 hours after treatment.
The % efficacy (% reduction) of the each treatment group compared with the untreated control group is shown in Tables 2 and 3 below and in FIG. 1.

C#Cc1ccc(CC(C#N)(C#N)c2ccc(F)cc2)cc1 [II-35]
% Efficacy vs. Haematobia irritans at 5 h (Haematobia irritans [1]; pour-on 10 mg/kg (Group 3)): 93.8% | efficacy vs. Haematobia irritans (Haematobia irritans [1]; pour-on 10 mg/kg (Group 3), until Day 13, after 5 hours post infestation): above 93% | % Efficacy vs. Haematobia irritans at 5 h (Haematobia irritans [1]; pour-on 20 mg/kg (Group 2)): 97.7% | % Efficacy vs. Haematobia irritans at 5 h (Haematobia irritans [2]; pour-on 5 mg/kg (Group 4), Day 1): 99.5% | % Efficacy vs. Haematobia irritans at 5 h (Haematobia irritans [2]; pour-on 5 mg/kg (Group 4), Day 7): 98.3% | % Efficacy vs. Haematobia irritans at 5 h (Haematobia irritans [2]; pour-on 5 mg/kg (Group 4), Day 13): 93.2% | % Efficacy vs. Haematobia irritans at 5 h (Haematobia irritans [2]; pour-on 5 mg/kg (Group 4), Day 21): 80.0% | % Efficacy vs. Haematobia irritans at 5 h (Haematobia irritans [2]; pour-on 5 mg/kg (Group 4), Day 28): 64.1% | % Efficacy vs. Haematobia irritans at 5 h (Haematobia irritans [2]; pour-on 5 mg/kg (Group 4), Day 35): 51.5% | % Efficacy vs. Haematobia irritans at 24 h (Haematobia irritans [2]; pour-on 5 mg/kg (Group 4), Day 2): 100.0% | % Efficacy vs. Haematobia irritans at 24 h (Haematobia irritans [2]; pour-on 5 mg/kg (Group 4), Day 8): 99.7% | % Efficacy vs. Haematobia irritans at 24 h (Haematobia irritans [2]; pour-on 5 mg/kg (Group 4), Day 14): 100.0% | % Efficacy vs. Haematobia irritans at 24 h (Haematobia irritans [2]; pour-on 5 mg/kg (Group 4), Day 22): 93.5% | % Efficacy vs. Haematobia irritans at 24 h (Haematobia irritans [2]; pour-on 5 mg/kg (Group 4), Day 29): 95.5% | % Efficacy vs. Haematobia irritans at 24 h (Haematobia irritans [2]; pour-on 5 mg/kg (Group 4), Day 36): 88.1% | efficacy vs. Haematobia irritans (Haematobia irritans [2]; pour-on 5 mg/kg (Group 4), until Day 13, after 5 hours post infestation): above 93% | efficacy vs. Haematobia irritans (Haematobia irritans [2]; pour-on 5 mg/kg (Group 4), until Day 29, after 24 hours post infestation): above 93% | % Efficacy vs. Haematobia irritans at 5 h (Haematobia irritans [2]; pour-on 10 mg/kg (Group 3), Day 1): 98.9% | % Efficacy vs. Haematobia irritans at 5 h (Haematobia irritans [2]; pour-on 10 mg/kg (Group 3), Day 7): 98.2% | % Efficacy vs. Haematobia irritans at 5 h (Haematobia irritans [2]; pour-on 10 mg/kg (Group 3), Day 21): 68.3% | % Efficacy vs. Haematobia irritans at 5 h (Haematobia irritans [2]; pour-on 10 mg/kg (Group 3), Day 28): 65.6% | % Efficacy vs. Haematobia irritans at 24 h (Haematobia irritans [2]; pour-on 10 mg/kg (Group 3), Day 2): 100.0% | % Efficacy vs. Haematobia irritans at 24 h (Haematobia irritans [2]; pour-on 10 mg/kg (Group 3), Day 8): 100.0% | % Efficacy vs. Haematobia irritans at 24 h (Haematobia irritans [2]; pour-on 10 mg/kg (Group 3), Day 14): 100.0% | % Efficacy vs. Haematobia irritans at 24 h (Haematobia irritans [2]; pour-on 10 mg/kg (Group 3), Day 22): 93.1% | % Efficacy vs. Haematobia irritans at 24 h (Haematobia irritans [2]; pour-on 10 mg/kg (Group 3), Day 29): 69.2% | efficacy vs. Haematobia irritans (Haematobia irritans [2]; pour-on 10 mg/kg (Group 3), until Day 22, after 24 hours post infestation): above 93% | % Efficacy vs. Haematobia irritans at 5 h (Haematobia irritans [2]; pour-on 20 mg/kg (Group 2), Day 1): 97.8% | % Efficacy vs. Haematobia irritans at 5 h (Haematobia irritans [2]; pour-on 20 mg/kg (Group 2), Day 7): 99.2% | % Efficacy vs. Haematobia irritans at 5 h (Haematobia irritans [2]; pour-on 20 mg/kg (Group 2), Day 21): 86.6% | % Efficacy vs. Haematobia irritans at 5 h (Haematobia irritans [2]; pour-on 20 mg/kg (Group 2), Day 28): 85.0% | % Efficacy vs. Haematobia irritans at 5 h (Haematobia irritans [2]; pour-on 20 mg/kg (Group 2), Day 35): 65.8% | % Efficacy vs. Haematobia irritans at 24 h (Haematobia irritans [2]; pour-on 20 mg/kg (Group 2), Day 2): 100.0% | % Efficacy vs. Haematobia irritans at 24 h (Haematobia irritans [2]; pour-on 20 mg/kg (Group 2), Day 8): 98.3% | % Efficacy vs. Haematobia irritans at 24 h (Haematobia irritans [2]; pour-on 20 mg/kg (Group 2), Day 14): 100.0% | % Efficacy vs. Haematobia irritans at 24 h (Haematobia irritans [2]; pour-on 20 mg/kg (Group 2), Day 22): 97.9% | % Efficacy vs. Haematobia irritans at 24 h (Haematobia irritans [2]; pour-on 20 mg/kg (Group 2), Day 29): 96.9% | % Efficacy vs. Haematobia irritans at 24 h (Haematobia irritans [2]; pour-on 20 mg/kg (Group 2), Day 36): 85.6% | efficacy vs. Haematobia irritans (Haematobia irritans [2]; pour-on 20 mg/kg (Group 2), until Day 13, after 5 hours post infestation): above 93% | efficacy vs. Haematobia irritans (Haematobia irritans [2]; pour-on 20 mg/kg (Group 2), until Day 29, after 24 hours post infestation): above 93%
